Measurements from ChEMBL document CHEMBL1126004, “Synthesis and resolution of 7-fluorotryptophans” (Bioorg Med Chem Lett, 1991).

Assay: Compound was evaluated for relative ratio (Kcat/Km) between catalyst constant (Kcat) and Michaelis-Menten constant (Km) in a reaction with tryptophan indole-lyase (tryptophanase) from Escherichia coli

Structure (SMILES)	k cat/Km [%]
N[C@@H](Cc1c[nH]c2c(F)ccc(F)c12)C(=O)O	6
N[C@@H](Cc1c[nH]c2c(F)cccc12)C(=O)O	14
N[C@@H](Cc1c[nH]c2ccccc12)C(=O)O	100
N[C@@H](Cc1c[nH]c2c(F)cc(F)cc12)C(=O)O	30
